Here are results for one molecule from US20100092402A1, “TREATMENT OF RESPIRATORY DISEASE” (Mucokinetica Ltd., priority 2007, published 2010).

One experiment concerns nasal epithelium. Briefly: Mucus host-defence responses during nasal perfusion. The experiment is classed as in vivo, human. The source says: Perfusion of the nasal epithelium with low chloride Ringer/HEPES buffer imposes a chemical gradient for chloride secretion, and therefore also provides a drive for fluid secretion.
Mucus host-defence episodes were scored 1 to 3 on the basis of the number of features and the magnitude of the responses observed. FIG. 10 reports the score of the episodes recorded, and indicates the time of their occurrence in the perfusion protocol.

Another experiment concerns prostasin. The conditions noted are these: rats infused i.v. for 24h; cited from earlier work.

Turning to `N=C(N)c1ccc2cc(OC(=O)c3ccc(N=C(N)N)cc3)ccc2c1` [6-amidino-2-napthyl 4-guanidinobenzoate], in the experiment with nasal epithelium (perfusion of 3.10^−6 M in low chloride Ringer/HEPES buffer), the “scores for episodes of mucus host-defence response (scored 1 to 3)” value is “Highest scores”. The mucus host-defence responses entry in the experiment on nasal epithelium (perfusion with 3.10^−6 M in low chloride Ringer/HEPES buffer) was “stimulated episodes of mucus host-defence responses”. In addition, the “levels of prostasin secreted in the urine” value in the experiment with prostasin is recorded as “reduced levels of prostasin”.
